Assay results taken from ChEMBL document CHEMBL4739717, “Methods of treating cartilage disorders through inhibition of clk and dyrk” (2020).

Assays:
[1] = Induction of chondrogenesis in human MSC assessed as incubated for 6 days by rhodamine B and Nile red staining based imaging analysis; assay type: functional; settings: bmmsc
[2] = Induction of chondrogenesis in human MSC assessed as maximum activity at 100 nM incubated for 6 days by rhodamine B and Nile red staining based imaging analysis relative to control; assay type: functional; settings: BMMSC, 144 h, time 6 day
[3] = Effect on Wnt signaling pathway in human SW480 cells harbouring TCF/LEF luciferase reporter gene and SP5-Luc reporter gene incubated for 36 to 48 hrs by luminescence assay; assay type: cell-based
[4] = target: Dual specificity tyrosine-phosphorylation-regulated kinase 1A (Homo sapiens, UniProt Q13627); experiment: Inhibition of recombinant DYRK1A (unknown origin) using Ser/Thr 18 peptide as substrate incubated for 1 hr in presence of ATP by FRET assay

Compound | EC50 [1] | Emax at 0.1 µM [2] | EC50 [3] | EC50 [4]
CC(C)Nc1cncc(-c2cnc3[nH]nc(-c4nc5c(-c6cccc(F)c6)cncc5[nH]4)c3c2)c1 | 30 nM | 504% | 1.2 nM | 20 nM
c1cncc(-c2cnc3[nH]nc(-c4nc5c(-c6cccnc6)cncc5[nH]4)c3c2)c1 |  | 62.9% | > 10000 nM | 86 nM
Cc1ccncc1-c1ccc2[nH]nc(-c3cc4c(-c5cccnc5)cncc4[nH]3)c2n1 | 10 nM | 149% | > 10000 nM | 45 nM
Nc1cncc(-c2cnc3[nH]nc(-c4cc5c(-c6ccccc6F)ccnc5[nH]4)c3c2)c1 |  | 27.6% | 745 nM | 59 nM
CN(C)CCOc1cncc(-c2ccc3[nH]nc(-c4nc5c(-c6cccs6)cccc5[nH]4)c3n2)c1 | 10 nM | 142% | 3110 nM | 41 nM
CC(C)C(=O)Nc1cncc(-c2ccc3[nH]nc(-c4nc5c(-c6cccnc6)cncc5[nH]4)c3c2)c1 |  | 34.4% | 5.1 nM | 10 nM
c1cncc(-c2cc3c(-c4cc5c(-c6cccnc6)cncc5[nH]4)n[nH]c3cn2)c1 | 100 nM | 76.4% | 1340 nM | 17 nM
O=C(Cc1ccccc1)Nc1cncc(-c2ccc3[nH]nc(-c4nc5c(-c6cccc(F)c6)cncc5[nH]4)c3c2)c1 | 100 nM | 124% | 23 nM | 24 nM
CN1CCN(c2nccc3[nH]c(-c4n[nH]c5cnc(-c6cncc(NC(=O)C7CCCCC7)c6)cc45)cc23)CC1 | 10 nM | 60.8% | 3420 nM | 3 nM
CCNCc1cncc(-c2cnc3[nH]nc(-c4cc5c(-c6ccccc6F)cncc5[nH]4)c3c2)c1 |  | 37.3% | 2300 nM | 14 nM
c1cncc(-c2cc3c(-c4nc5ccccc5[nH]4)n[nH]c3cn2)c1 | 30 nM | 80.5% | 20.1 nM | 72 nM
Cc1cn(-c2ccnc3[nH]c(-c4n[nH]c5ccc(-c6cncc(NC(=O)C(C)(C)C)c6)nc45)nc23)cn1 | 10 nM | 70.2% | > 10000 nM | 22 nM
CN(C)Cc1cncc(-c2cnc3[nH]nc(-c4nc5c(-c6ccsc6)cncc5[nH]4)c3c2)c1 |  | 91.3% | 57 nM | 10 nM
c1cc2[nH]c(-c3n[nH]c4ccc(-c5cncc(CN6CCCCC6)c5)cc34)cc2c(N2CCCCC2)n1 |  | 48.1% | 4210 nM | 32 nM
Cc1cn(-c2nccc3[nH]c(-c4n[nH]c5ccc(-c6cncc(NC(=O)CC(C)C)c6)nc45)nc23)cn1 | 30 nM | 69.3% | 2900 nM | 28 nM
CCCCC(=O)Nc1cncc(-c2ccc3[nH]nc(-c4cc5c(-c6ccoc6)cncc5[nH]4)c3c2)c1 | 30 nM | 122% | 915 nM | 13 nM
FC1(F)CCN(Cc2cncc(-c3ccc4[nH]nc(-c5nc6c(-c7ccsc7)cncc6[nH]5)c4c3)c2)C1 |  | 81.3% | 1.8 nM | 15 nM
CCC(=O)Nc1cncc(-c2ccc3[nH]nc(-c4cc5c(-c6cc(F)cc(CNS(C)(=O)=O)c6)cncc5[nH]4)c3c2)c1 |  | 29.4% | 244 nM | 22 nM
FC1(F)CCN(Cc2cncc(-c3cnc4[nH]nc(-c5cc6c(-c7ccncc7)cccc6[nH]5)c4c3)c2)C1 |  | 29.2% | 708 nM | 76 nM
CN(C)c1cncc(-c2ccc3[nH]nc(-c4nc5c(-c6cccc(F)c6)cncc5[nH]4)c3n2)c1 | 10 nM | 154% | 638 nM | 25 nM
CC(C)CC(=O)Nc1cncc(-c2ccc3[nH]nc(-c4nc5c(-c6ccc(F)cc6)cncc5[nH]4)c3c2)c1 | 100 nM | 125% | 57 nM | 60 nM
FC1(F)CCN(Cc2cncc(-c3ccc4[nH]nc(-c5cc6c(N7CCCCC7)ccnc6[nH]5)c4n3)c2)C1 |  | 37.6% | 5270 nM | 30 nM
Cc1ccc(-c2cncc3[nH]c(-c4n[nH]c5ccc(-c6cncc(N)c6)nc45)nc23)s1 | 30 nM | 79.4% | 40.7 nM | 2 nM
Cn1cc(-c2ccc3[nH]nc(-c4cc5c(-c6cccnc6)cncc5[nH]4)c3c2)cn1 | 30 nM | 65.2% | 250 nM | 53 nM
Cc1ccncc1-c1cc2c(-c3nc4c(-c5cc(F)cc(CNS(C)(=O)=O)c5)cccc4[nH]3)n[nH]c2cn1 | 30 nM | 81.8% | 30.4 nM | 58 nM
O=C(Nc1cncc(-c2ccc3[nH]nc(-c4nc5c(-c6ccc(Cl)s6)ccnc5[nH]4)c3n2)c1)C1CCC1 | 10 nM | 102% | 354 nM | 28 nM

Compound | EC50 [1] | Emax at 0.1 µM [2] | EC50 [3] | EC50 [4]
CC(C)C(=O)Nc1cncc(-c2ccc3[nH]nc(-c4cc5c(-c6cccnc6)cncc5[nH]4)c3c2)c1 |  | 34.5% | 260 nM | 6 nM
Fc1cccc(-c2nccc3[nH]c(-c4n[nH]c5ccc(-c6cncc(CN7CCCCC7)c6)nc45)cc23)c1 |  | 48% | 3750 nM | 71 nM
O=C(Nc1cncc(-c2cnc3[nH]nc(-c4nc5c(-c6ccoc6)cncc5[nH]4)c3c2)c1)c1ccccc1 | 100 nM | 110% | 51 nM | 30 nM
FC1(F)CCN(Cc2cncc(-c3cnc4[nH]nc(-c5cc6c(-c7ccoc7)cccc6[nH]5)c4c3)c2)C1 | 30 nM | 72.1% | 1000 nM | 11 nM
c1cnc2[nH]c(-c3n[nH]c4ccc(-c5cncc(OCCN6CCCC6)c5)cc34)cc2c1 |  | 42.7% | 3300 nM | 10 nM
CN1CCN(c2nccc3[nH]c(-c4n[nH]c5ccc(-c6cncc(NC(=O)c7ccccc7)c6)cc45)cc23)CC1 |  | 34.6% | 2140 nM | 16 nM
CC(C)(C)CC(=O)Nc1cncc(-c2cc3c(-c4cc5cnccc5[nH]4)n[nH]c3cn2)c1 | 10 nM | 58.8% | 1890 nM | 3 nM
CCC(=O)Nc1cncc(-c2cnc3[nH]nc(-c4cc5c(-c6cccc(F)c6)cncc5[nH]4)c3c2)c1 | 10 nM | 113% | 246 nM | 13 nM
Cn1cc(-c2cc3c(-c4nc5c(-c6cccc(F)c6)cncc5[nH]4)n[nH]c3cn2)cn1 | 100 nM | 71% | 70 nM | 15 nM
Cc1ccc(-c2cncc3[nH]c(-c4n[nH]c5cnc(-c6cncc(N)c6)cc45)nc23)s1 | 100 nM | 162% | 10.9 nM | 44 nM
c1ncc(-c2ccc3[nH]nc(-c4cc5c(-c6ccoc6)nccc5[nH]4)c3c2)cn1 |  | 40.2% | 1910 nM | 33 nM
FC1(F)CCN(Cc2cncc(-c3ccc4[nH]nc(-c5nc6c(N7CCCCC7)cncc6[nH]5)c4c3)c2)C1 |  | 80.1% | 20 nM | 22 nM
CC(C)(C)C(=O)Nc1cncc(-c2ccc3[nH]nc(-c4cc5c(-c6ccncc6)ccnc5[nH]4)c3c2)c1 |  | 44.4% | > 10000 nM | 20 nM
CN1CCN(c2nccc3[nH]c(-c4n[nH]c5ccc(-c6cncc(NC(=O)C7CCCCC7)c6)cc45)cc23)CC1 |  | 37.8% | 5270 nM | 22 nM
CN1CCN(c2nccc3[nH]c(-c4n[nH]c5ncc(-c6cncc(NC(=O)C7CCCC7)c6)cc45)cc23)CC1 |  | 30.3% | > 10000 nM | 7 nM
Fc1cccc(-c2cncc3[nH]c(-c4n[nH]c5ncc(-c6cccnc6)cc45)cc23)c1 |  | 35.6% | 572 nM | 57 nM
CC(C)Nc1cncc(-c2ccc3[nH]nc(-c4cc5c(-c6cccnc6)ccnc5[nH]4)c3n2)c1 |  | 47.2% | 255 nM | 25 nM
CC(C)CC(=O)Nc1cncc(-c2cc3c(-c4cc5cccnc5[nH]4)n[nH]c3cn2)c1 |  | 40.4% | > 10000 nM | 13 nM
CS(=O)(=O)NCc1cc(F)cc(-c2cncc3[nH]c(-c4n[nH]c5ccc(-c6cncc(NC(=O)C7CCC7)c6)cc45)cc23)c1 |  | 14.5% | 554 nM | 34 nM
CC(C)(C)CC(=O)Nc1cncc(-c2ccc3[nH]nc(-c4cc5c(-c6ccoc6)ccnc5[nH]4)c3c2)c1 |  | 21.2% | 890 nM | 20 nM
Cc1cn(-c2cncc3[nH]c(-c4n[nH]c5ccc(-c6cncc(NC(=O)C7CCC7)c6)nc45)nc23)cn1 |  | 47.2% | > 10000 nM | 8 nM
c1cc2[nH]c(-c3n[nH]c4ncc(-c5cncc(CN6CCCCC6)c5)cc34)cc2cn1 |  | 39.7% | 1540 nM | 7 nM
CCC(=O)Nc1cncc(-c2ccc3[nH]nc(-c4cc5c(-c6cccc(F)c6)cncc5[nH]4)c3c2)c1 |  | 33.5% | 45 nM | 27 nM
Nc1cncc(-c2ccc3[nH]nc(-c4cc5c(-c6ccccn6)ccnc5[nH]4)c3c2)c1 |  | 46.1% | 22.4 nM | 13 nM
CC(C)Nc1cncc(-c2ccc3[nH]nc(-c4cc5c(-c6cccnc6)cncc5[nH]4)c3c2)c1 |  | 41.9% | 670 nM | 21 nM
O=C(Nc1cncc(-c2cnc3[nH]nc(-c4cc5cccnc5[nH]4)c3c2)c1)C1CCCCC1 |  | 28.5% | 1260 nM | 11 nM
